Results on 13 molecules are retold here after patent publication US9440962B2, “Benzisoxazoles” (Hoffmann-La Roche Inc., priority 2012, dated 2016).

Structures are written as SMILES.

Data set [1] has as its system human embryonic stem cell derived neural stem cells (NSCs). Kind of data set: Neural stem cell proliferation assay (neurogenesis assay, ATP levels by CellTiterGlo). In kind it is cell-based. To be noted: 96 h, compound concentration at which 150% activity of control (100%) is reached, ATP levels after 4 days incubation, dose response 8 μM to 8 nM. As for the experimental part: Neural Stem Cell Proliferation Assay
Neurogenic properties of small molecules are determined based on the proliferation of human embryonic stem cell derived neural stem cells (NSCs) which were derived via a dual smad inhibition as previously described (Chambers, S. M., et al., Highly efficient neural conversion of human ES and iPS cells by dual inhibition of SMAD signaling, Nature biotechnology, 2009. 27(3): p. 275-80.)
Compounds respond is measured by the increase in cells based on ATP levels (Promega:CellTiterGlo®) after an incubation period of 4 days.
NSCs are thawed and expanded over 3 passages. On the 14th day, NSCs are seeded in Polyornithin/Laminin coated 384 well plates at a cell density of 21′000 cells/cm^2 in a media volume of 38 μl.
4 hours after cell seeding, compound solutions are added at a volume of 2 μl. Stock solutions of the compounds (water, 5% DMSO) are diluted to obtain a dose response (11 points, dilution factor is 2), ranging from 8 μM to 8 nM. Controls are run to consistently determine the neurogenic properties of the cells: • Negative (neutral) control is cell culture Media (final DMSO concentration: 0.25%). Positive controls are: • 1. cell culture Media+100 ng/ml FGF2 (final DMSO concentration: 0.1%) • 2. cell culture Media+20 ng/ml EGF (final DMSO concentration: 0.1%) • 3. cell culture Media+100 ng/ml Wnt3a (final DMSO concentration: 0.1%)
After 4 days incubation at 37° C., 5% CO2, the amount of ATP per well is quantified. The ATP concentration is proportional to the cell number. ATP is quantified by using the Promega CellTiterGlo® kit. The CellTiterGlo® reagents contain a cell lysis buffer, a thermo stable luciferase (UltraGlo™ recombinant luciferase), magnesium and luciferin. Luciferin reacts with ATP producing oxyluciferin, AMP and light. The luminescence signal is proportional to the ATP content.
The value of negative (neutral) control is determined for each assay plate by taking the average of 16 negative control wells. The neurogenic compound response is calculated for each compound as (compound/Negative Control)* 100.
The values of EC150 from the dose response curve are determined for each test compound. The EC150 is the compound concentration at which 150% activity of control (100%) is reached.
In general terms: In ATP-based viability assays light output follows the ATP content of the culture.

With `Fc1ccc(-c2onc3ccc(-c4ccnn4-c4ccccc4F)cc23)cc1` [Example 1, 3-(4-Fluoro-phenyl)-5-[2-(2-fluoro-phenyl)-2H-pyrazol-3-yl]-benzo[c]isoxazole], the melting point came out at 171 °C. In data set [1], this molecule registered an EC (150% of control) of 0.12 µM.
Molecule `Fc1cccc(-c2onc3ccc(-c4ccnn4-c4ccccc4F)cc23)c1` [Example 2, 3-(3-Fluoro-phenyl)-5-[2-(2-fluoro-phenyl)-2H-pyrazol-3-yl]-benzo[c]isoxazole] came in with a melting point of 186 °C. This molecule also displayed an EC (150% of control) in data set [1] of 0.29 µM.
The like results for `Cc1ccc(-c2onc3ccc(-c4ccnn4-c4ccccc4F)cc23)cc1` [Example 3, 5-[2-(2-Fluoro-phenyl)-2H-pyrazol-3-yl]-3-p-tolyl-benzo[c]isoxazole] were, in that order, 173 °C and 0.12 µM.
The like results for `Fc1ccccc1-n1nccc1-c1ccc2noc(-c3ccc(C(F)(F)F)cc3)c2c1` [Example 4, 5-[2-(2-Fluoro-phenyl)-2H-pyrazol-3-yl]-3-(4-trifluoromethyl-phenyl)-benzo[c]isoxazole] were, in that order, 156 °C and 0.92 µM.
For `Fc1ccccc1-n1nccc1-c1ccc2noc(-c3ccc(Cl)cc3)c2c1` [Example 5, 3-(4-Chloro-phenyl)-5-[2-(2-fluoro-phenyl)-2H-pyrazol-3-yl]-benzo[c]isoxazole] the same measures were 191 °C and 0.033 µM.
For the molecule `COc1ccc(-c2onc3ccc(-c4ccnn4-c4ccccc4F)cc23)cc1` [Example 6, 5-[2-(2-Fluoro-phenyl)-2H-pyrazol-3-yl]-3-(4-methoxy-phenyl)-benzo[c]isoxazole], the melting point is 134 °C. The molecule further came in with an EC (150% of control) in data set [1] of 0.073 µM.
With `Fc1ccccc1-n1nccc1-c1ccc2noc(-c3ccc(Br)cc3)c2c1` [Example 7, 3-(4-Bromo-phenyl)-5-[2-(2-fluoro-phenyl)-2H-pyrazol-3-yl]benzo[c]isoxazole], the melting point worked out at 202 °C. The same molecule showed an EC (150% of control) in data set [1] of 0.054 µM.
On to `Fc1ccc(-c2onc3ccc(-c4ccnn4-c4ccc(F)cc4)cc23)cc1` [Example 8, 3-(4-Fluoro-phenyl)-5-[2-(4-fluoro-phenyl)-2H-pyrazol-3-yl]-benzo[c]isoxazole], for which the melting point worked out at 159 °C. This molecule also gave an EC (150% of control) in data set [1] of 0.25 µM.
`Fc1ccc(-c2onc3ccc(-c4ccnn4-c4cccc(F)c4)cc23)cc1` [Example 9, 3-(4-Fluoro-phenyl)-5-[2-(3-fluoro-phenyl)-2H-pyrazol-3-yl]-benzo[c]isoxazole] yielded a melting point of 175 °C. The EC (150% of control) in data set [1] was found to be 2.8 µM.
For `Fc1ccc(-n2nccc2-c2ccc3noc(-c4cccc(F)c4)c3c2)cc1` [Example 10, 3-(3-Fluoro-phenyl)-5-[2-(4-fluoro-phenyl)-2H-pyrazol-3-yl]-benzo[c]isoxazole] the same measures were 176 °C and 0.56 µM.
For `Cc1ccc(-c2onc3ccc(-c4ccnn4-c4ccc(F)cc4)cc23)cc1` [Example 11, 5-[2-(4-Fluoro-phenyl)-2H-pyrazol-3-yl]-3-p-tolyl-benzo[c]isoxazole] the same measures were 158 °C and 0.23 µM.
For `Fc1ccc(-n2nccc2-c2ccc3noc(-c4ccc(Cl)cc4)c3c2)cc1` [Example 12, 3-(4-Chloro-phenyl)-5-[2-(4-fluoro-phenyl)-2H-pyrazol-3-yl]-benzo[c]isoxazole] the same measures were 188 °C and 0.26 µM.
In turn, `COc1ccc(-c2onc3ccc(-c4ccnn4-c4ccc(F)cc4)cc23)cc1` [Example 13, 5-[2-(4-Fluoro-phenyl)-2H-pyrazol-3-yl]-3-(4-methoxy-phenyl)-benzo[c]isoxazole] registered a melting point of 153 °C. The molecule further had an EC (150% of control) in data set [1] of 0.39 µM.

One may read the melting point as the temperature, or range, at which the solid turns liquid.
